pIC50: −log10 of the molar value. Bounds are passed on as bounds.

Holding throughout (assay type): functional, cell-based
One assay concerns KG-1. The assay is described as follows: Antiproliferative activity against human KG-1 cells assessed as inhibition of cell growth incubated for 72 hrs by MTT assay. The conditions noted are these: KG-1, 72 h. For orientation: Tetrazolium assays rely on reduction of a dye to a coloured formazan, in cell work by metabolically active cells.
The next assay concerns SK-OV-3. The assay is described as follows: Antiproliferative activity against human SK-OV-3 cells assessed as inhibition of cell growth incubated for 72 hrs by MTT assay. The conditions noted are these: SK-OV-3, 72 h.
The next assay deals with U-937. In words: Antiproliferative activity against human U-937 cells assessed as inhibition of cell growth incubated for 72 hrs by MTT assay. Particulars: U-937, 72 h.
The next assay concerns THP-1. The assay is described as follows: Antiproliferative activity against human THP-1 cells assessed as inhibition of cell growth incubated for 72 hrs by MTT assay. Particulars: THP-1, 72 h.
Assay [1] is described as follows: Antiproliferative activity against human SK-OV-3/Taxol cells assessed as inhibition of cell growth incubated for 72 hrs by MTT assay. The conditions noted are these: SK-OV-3, 72 h.

As for `CCc1nccnc1C(=O)/C=C/c1cccc(Cl)c1Cl`, the pIC50 in the assay on KG-1 was 4.98; with SK-OV-3, 4.95; in the assay with U-937, 5.40; with THP-1, 4.84; in assay [1], 4.95.

As to `Cc1nccnc1C(=O)/C=C/c1ccc(Cl)cc1Cl`, the pIC50 is 5.12 with KG-1; 5.19 with SK-OV-3; 5.33 in the assay with U-937; 5.04 with THP-1; 5.17 in assay [1].

As to `O=C(/C=C/c1ccc(-c2ccccc2)cc1)c1cnccn1`, the pIC50 in the assay with KG-1 was under 4.30; in the assay with SK-OV-3 it was 4.78; in the assay with U-937, 4.50; in the assay with THP-1, under 4.30; in assay [1], 4.79.

On to `CCc1nccnc1C(=O)/C=C/c1ccccc1[N+](=O)[O-]`, for which the pIC50 in the assay on KG-1 was 5.43; in the assay on SK-OV-3, 5.60; in the assay with U-937 it was 5.84; in the assay on THP-1, 5.82; in assay [1] it was 5.39.

Consider `Cc1nccnc1C(=O)/C=C/C=C/c1ccc(F)cc1`, for which the pIC50 in the assay with KG-1 is 4.56; in the assay with SK-OV-3 it was 4.96; with U-937, 4.99; with THP-1 it was 4.34; in assay [1] it was 4.94.

Consider `CCc1nccnc1C(=O)/C=C/c1ccc(F)cc1`, for which the pIC50 is 5.45 with KG-1; 5.51 in the assay with SK-OV-3; 5.62 with U-937; 5.14 in the assay with THP-1; 5.46 in assay [1].

`CCc1nccnc1C(=O)/C=C/c1ccccc1N1CCOCC1`: the pIC50 with KG-1 was 5.26; with SK-OV-3, 5.39; in the assay on U-937, 5.35; in the assay on THP-1, 5.46; in assay [1], 5.40.

On to `CCc1nccnc1C(=O)/C=C/c1ccc(Cl)cc1Cl`, for which the pIC50 in the assay on KG-1 was 5.22; in the assay with SK-OV-3 it was 5.16; in the assay with U-937, 5.00; in the assay on THP-1, 5.08; in assay [1], 5.17.

For the compound `CCc1nccnc1C(=O)/C=C/c1ccc(F)cc1F`, the pIC50 in the assay with KG-1 was 4.59; with SK-OV-3, 5.28; in the assay with U-937 it was 5.10; in the assay on THP-1, 5.24; in assay [1], 5.10.

On to `Cc1nccnc1C(=O)/C=C/c1ccc(C#N)cc1`, for which the pIC50 with KG-1 was 6.00; with SK-OV-3, 5.35; in the assay on U-937, 5.68; in the assay on THP-1, 6.14; in assay [1], 5.33.

`CCN(CC)c1ccc(/C=C/C(=O)c2nccnc2C)cc1`: the negative-log IC50 (pIC50) in the assay with KG-1 is 5.15; in the assay with SK-OV-3 it was 5.47; in the assay with U-937 it was 5.19; in the assay on THP-1, 5.09; in assay [1], 5.08.

Turning to `O=C(/C=C/c1cccc([N+](=O)[O-])c1)c1cnccn1`, the negative-log IC50 (pIC50) in the assay with KG-1 is 4.99; in the assay with SK-OV-3 it was under 4.30; in the assay on U-937 it was 5.10; in the assay with THP-1, 5.28; in assay [1], under 4.30.

On to `Cc1nccnc1C(=O)/C=C/c1csc2ccccc12`, for which the pIC50 in the assay on KG-1 is 5.81; in the assay with SK-OV-3, 5.32; in the assay on U-937 it was 5.82; with THP-1 it was 5.68; in assay [1], 5.48.

Take `Cc1nccnc1C(=O)/C=C/c1cccc([N+](=O)[O-])c1`: the pIC50 with KG-1 was 5.32; in the assay on SK-OV-3, 5.25; with U-937, 5.61; in the assay on THP-1, 5.65; in assay [1], 5.20.

In the case of `O=C(/C=C/c1csc2ccccc12)c1cnccn1`, the pIC50 was 5.22 in the assay with KG-1; 4.85 in the assay on SK-OV-3; 4.86 with U-937; 5.06 in the assay with THP-1; 4.82 in assay [1].

For `N#Cc1cccc(/C=C/C(=O)c2cnccn2)c1`, the pIC50 is 5.23 with KG-1; 4.97 in the assay with SK-OV-3; 5.13 with U-937; 5.01 with THP-1; 4.86 in assay [1].

`Cc1nccnc1C(=O)/C=C/c1ccc(F)cc1`: the pIC50 in the assay with KG-1 is 4.66; with SK-OV-3, 4.51; in the assay on U-937, 4.58; in the assay with THP-1 it was 4.52; in assay [1] it was 4.53.

On to `Cc1nccnc1C(=O)/C=C/c1ccc(C(C)(C)C)cc1`, for which the pIC50 is 4.36 in the assay with KG-1; 4.78 in the assay with SK-OV-3; 4.73 in the assay with U-937; 4.57 in the assay on THP-1; 4.85 in assay [1].

In the case of `Cc1nccnc1C(=O)/C=C/c1ccc2c(c1)OC(F)(F)O2`, the pIC50 in the assay with KG-1 was 5.19; with SK-OV-3, 5.29; in the assay with U-937, 5.44; with THP-1 it was 5.23; in assay [1] it was 5.21.

In the case of `CCc1nccnc1C(=O)/C=C/c1ccc(-c2ccccc2)cc1`, the pIC50 is 4.65 in the assay on KG-1; 4.77 in the assay with SK-OV-3; 5.02 in the assay with U-937; 5.04 with THP-1; 4.78 in assay [1].

Take `O=C(/C=C/c1ccccc1Cl)c1cnccn1`: the pIC50 in the assay on KG-1 is 5.08; in the assay with SK-OV-3, 5.14; in the assay with U-937, 4.94; in the assay on THP-1, 4.93; in assay [1], 4.99.

As for `CCc1nccnc1C(=O)/C=C/c1ccc(Cl)cc1`, the pIC50 in the assay on KG-1 was 5.44; with SK-OV-3 it was 5.15; in the assay with U-937, 5.64; in the assay on THP-1, 5.33; in assay [1] it was 5.17.

As to `Cc1nccnc1C(=O)/C=C/c1ccccc1N1CCOCC1`, the pIC50 is 5.25 in the assay with KG-1; 5.59 in the assay on SK-OV-3; 4.84 in the assay with U-937; 4.94 with THP-1; 5.49 in assay [1].

For the compound `O=C(/C=C/c1ccccc1N1CCOCC1)c1cnccn1`, the pIC50 was 5.67 in the assay on KG-1; 5.61 in the assay on SK-OV-3; 5.12 in the assay on U-937; 5.08 in the assay on THP-1; 5.52 in assay [1].

`O=C(/C=C/c1ccc(Cl)cc1Cl)c1cnccn1`: the pIC50 was 5.18 with KG-1; under 4.30 in the assay on SK-OV-3; 5.08 in the assay with U-937; 5.18 in the assay on THP-1; under 4.30 in assay [1].

Take `CSc1ccc(/C=C/C(=O)c2cnccn2)cc1`: the pIC50 with KG-1 was 5.25; with SK-OV-3 it was 5.19; with U-937 it was 5.15; in the assay with THP-1, 5.08; in assay [1], 5.10.

For the compound `CCc1nccnc1C(=O)/C=C/c1ccccc1Cl`, the pIC50 with KG-1 is 5.50; with SK-OV-3, 5.30; in the assay on U-937 it was 5.23; in the assay with THP-1 it was 5.35; in assay [1] it was 5.25.

As for `O=C(/C=C/c1cccc(Cl)c1)c1cnccn1`, the pIC50 is 5.00 with KG-1; 4.96 with SK-OV-3; 4.94 in the assay on U-937; 4.99 in the assay on THP-1; 4.97 in assay [1].

Consider `CCc1nccnc1C(=O)/C=C/c1ccc(OC)cc1`, for which the pIC50 in the assay on KG-1 was 4.64; in the assay on SK-OV-3 it was 4.96; in the assay on U-937, 5.28; with THP-1, 5.22; in assay [1], 5.01.

For the compound `O=C(/C=C/c1ccc(Br)cc1)c1cnccn1`, the pIC50 in the assay on KG-1 is 4.69; in the assay on SK-OV-3 it was under 4.30; in the assay on U-937, under 4.30; in the assay on THP-1 it was 4.63; in assay [1], under 4.30.

The pIC50 is the IC50 on a negative log10 scale, so that one unit is a factor of ten.

The values are drawn from ChEMBL document CHEMBL6114992, “Design, synthesis, biological evaluation, and mechanism of action of new pyrazines as anticancer agents in vitro and in vivo” (Bioorg Med Chem, 2025).
